In patent publication US20080200338A1, “Heteroaroyl-Substituted Serineamides” (BASF Aktiengesellschaft, priority 2005, published 2008):

SMILES	melting point [°C]
C=CC(O)C(NC(=O)c1cn(C)nc1C(F)(F)F)C(=O)NC (racemic) [Compound 3.4, N-(2-Hydroxy-1-methylcarbamoylbut-3-enyl)-1-methyl-3-trifluoromethyl-1H-pyrazole-4-carboxamide]	136
C=CC(OC(C)=O)C(NC(=O)c1cn(C)nc1C(F)(F)F)C(=O)NC (racemic) [Compound 3.10, 1-{Methylcarbamoyl-[(1-methyl-3-trifluoromethyl-1H-pyrazol-4-carbonyl)amino]methyl}-allyl acetate]	160
